Assay results taken from PMC8002983, “Mammalian Arginase Inhibitory Activity of Methanolic Extracts and Isolated Compounds from Cyperus Species” (Molecules, 2021).
Read-outs that look alike come from different tables or passages of the source.

What was measured:
[1] = system: aortic rings from adjuvant induced-arthritis rats; assay: ex vivo acetylcholine-induced relaxation in isolated aortic rings from arthritic rats; parameters: species or system rat; conditions: day 33 post-immunization, phenylephrine 10^−6 mol/L preconstriction, nor-NOHA 10^−4 mol/L, extract 2.6 10^−3 mg/mL
Description: This part of the experiment was performed on 15 male Lewis rats (6 weeks old), purchased from JanvierLabs (Le Genest Saint Isle, France). The experimental procedures were approved by the local ethics committee for animal experimentation No. 2015/001-CD/5PR of Franche-Comté University (Besançon, France) and complied with the “Animal Research: Reporting In Vivo Experiments” (ARRIVE) guidelines.
Arthritis was induced by a single intradermal injection to the tail of 120 μL of 10 mg·ml^−1 heat-killed Mycobacterium butyricum suspended in Freund’s incomplete adjuvant, as described previously. Non-arthritic age-matched rats were used as controls and received saline at the base of the tail.
At 33 days post-immunization, corresponding to the acute phase of arthritis, the rats were anesthetized using sodium pentobarbital 60 mg/kg (Ceva Santé Animale, France). The descending thoracic aorta was excised and carefully cleaned for vascular study as previously described. […] To assess the effect of arginase inhibitors, experiments were repeated in the presence of nor-NOHA (10^−4 M) and C. thunbergii extract (at EC50 obtained by in vitro test), respectively.

[2] = target: T1, purified liver bovine arginase (b-ARGI) (Bos taurus, UniProt Q2KJ64); assay: in vitro arginase inhibitory assay (colorimetric urea detection); format: biochemical; conditions: means ± SEM, three distinct experiments in triplicate, read-out: Arginase Inhibition, IC50
T1 construct: purified liver bovine arginase 1, which was purchased from MP Biomedicals; purchased MP Biomedicals (Illkirch-Graffenstaden, France); host or cells: bovine liver (tissue-purified)
T1 sequence (Q2KJ64 1-322): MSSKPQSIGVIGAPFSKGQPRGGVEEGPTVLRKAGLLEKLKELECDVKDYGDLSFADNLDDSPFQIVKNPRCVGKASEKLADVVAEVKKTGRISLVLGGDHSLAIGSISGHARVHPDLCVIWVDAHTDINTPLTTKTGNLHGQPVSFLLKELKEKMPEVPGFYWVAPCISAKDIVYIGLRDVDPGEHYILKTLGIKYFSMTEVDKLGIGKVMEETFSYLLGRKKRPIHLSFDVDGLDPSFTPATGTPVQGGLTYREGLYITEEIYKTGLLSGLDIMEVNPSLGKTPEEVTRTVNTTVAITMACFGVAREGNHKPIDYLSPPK
Description: The amount of urea produced by the hydrolysis of L-arginine by arginase (purified liver bovine arginase (b-ARGI)) can be detected using a color reactant (α-isonitrosopropiophenone) followed by a colorimetric assay, as described below. In each well of a 96-well microplate, the solutions were added in the following order: (1) buffer containing Tris-HCl (50 mM, pH 7.5) and 0.1% of bovine serum albumin (TBSA buffer) (10 μL), with or without (control) arginase (0.025 U/μL); (2) Tris-HCl solution (50 mM, pH 7.5) containing 10 mM MnCl2 as a cofactor (30 μL); (3) a solution containing an inhibitor or its solvent (as a control) (10 μL); (4) a solution of L-arginine (pH 9.7, 0.05 M) (20 μL). The microplate was incubated for 60 min in a 37 °C water bath after covering with a plastic sealing film. The addition of 120 μL of H2SO4/H3PO4/H2O (1:3:7) quenched the reaction. The microplate was left on ice for 5 min. Thereafter, 10 μL of α-isonitrosopropiophenone (5% in absolute ethanol (EtOH)) was added, and the microplate was heated in an oven at 100 °C for 45 min, after covering with an aluminum sealing film. As the colored product is photosensitive, the microplate was kept in the dark until reading. After 5 min of centrifugation and cooling for another 10 min, the microplate was shaken for 2 min and the absorbance was read at 550 nm and 25 °C using a spectrophotometer (Synergy HT BioTeck). The level of arginase activity was expressed as relative to the “100% arginase activity”. The experiment was repeated three times with each microplate under similar experimental conditions (e.g., various inhibitor concentrations.)
The percentage of arginase inhibitory activity and IC50 values was evaluated as previously described. A stock solution (70 mM) was prepared in DMSO and stored at −26 °C for each compound. These stock solutions were extemporaneously and successively diluted in ultrapure H2O to afford the following concentrations: 7000, 2100, 700, 210, 70, 21, 7, 2.1, and 0.7 μM, corresponding to final concentrations in the wells of 1000, 300, 100, 30, 10, 3, 1, 0.3, 0.1 μM, respectively. For a first screening, compounds were tested at final concentrations of 10 and 100 μM. Each solution was incubated with arginase for 1 h, as described above. The percentage of arginase inhibition was calculated by conversion of the resulting absorbance (relative to the absorbance of controls with only solvent (“100% arginase activity”)) and plotted on a semilogarithmic scale. The IC50 values were estimated by nonlinear sigmoidal curve-fitting by using Prism (GraphPad Software, version 5.0.3).

[3] = target: T1, purified liver bovine arginase (b-ARGI); parameters: method as in PMID 27776374, PMID 28837342; conditions: mammalian arginase; read-out: Arginase inhibition IC50 of natural inhibitor piceatannol; cited from earlier work

Structure (SMILES)	IC50 [2]	other results
N=C(NO)NCC[C@H](N)C(=O)O [nor-NOHA, Nω-hydroxy-nor-L-arginine]	–	effect on depressed Ach-induced endothelium-dependent relaxation (endothelial dysfunction) [1]: relaxation was higher
COc1cc2c3c(cc(O)cc3c1)C(C)(C)c1c-2ccc(OC)c1O [Compound 1, 4,6-dihydroxy-12-dimethyl-3,10-dimethoxybenzophenanthrene]	28.8 ± 2.5 µM	–
Oc1cc(O)cc(/C=C/c2ccc(O)c(O)c2)c1 [piceatannol]	–	IC50 [3]: 12.6 µM
Oc1ccc(/C=C/c2cc(O)cc3c2[C@H](c2cc(O)cc(O)c2)[C@@H](c2ccc(O)c(O)c2)O3)cc1 (stereo in doubt) [Compound 4, trans-scirpusin A]	17.6 ± 2.2 µM	–
Oc1ccc(/C=C/c2cc(O)cc(O)c2)cc1 [Compound 3, trans-resveratrol]	105 ± 4.1 µM	–
COc1cc2c3c(c1)O[C@H](C)CC3(C)c1cc3oc(OC)ccc-3c1O2 (stereo partly drawn) [Compound 2, thunbergin B]	74.1 ± 3.7 µM	–
Oc1cc(O)cc(-c2c(-c3ccc(O)c(O)c3)oc3cc4oc(-c5ccc(O)c(O)c5)c(-c5cc(O)cc(O)c5)c4c(/C=C/c4ccccc4)c23)c1 [Compound 6, trans-cyperusphenol A]	19.4 ± 1.3 µM	–
O=c1cc(-c2ccc(O)c(O)c2)oc2cc(O)cc(O)c12 [Compound 7, luteolin]	60.6 ± 3.1 µM	–
O=C1/C(=C/c2ccc(O)c(O)c2)Oc2cc(O)cc(O)c21 [Compound 5, aureusidin]	57.1 ± 2.3 µM	–
